# Assay results published in patent US8815852B2, “Carbamoyloxy arylalkan arylpiperazine analgesics” (SK Biopharmaceuticals Co., Ltd., priority 2007, dated 2014).
# Test system: male ICR mouse
# Assay: Acetic acid-induced writhing test in mouse
# Assay type: in vivo
# Conditions: Mus musculus, po, 1 h, at 10 po (method: 10 mg/kg oral, 1 hour before acetic acid); read-out: AA Writhing: Suppression ratio of Pain response
# Method: 2. Acetic Acid-Induced Writhing Test in Mouse
# An acetic acid-induced writhing test is one of models for measuring an analgesic effect of drugs. A test material dissolved in a suitable vehicle was orally administered to a male ICR mouse weighing 30 to 35 g at an amount of 10 mg/kg. After 1 hour of the oral administration, […] of an aqueous 0.8% acetic acid solution was intraperitoneally injected into the male ICR mouse to induce the abdominal pain of the male ICR mouse. Right after the administration of acetic acid, the male ICR mouse was put into an empty cage, and the number of writhing behaviors of the mice was counted for 10 minutes. The term “writhing represents a reflex action in which the mouse overtly extends its abdomen by stretching its hind legs due to the abdominal pain. The analgesic effect of the test material is represented by the ‘suppression ratio of pain response’ {[(Writhing number of Vehicle-administered group−Writhing number of Test material-administered group)/(Writhing number of Vehicle-administered group)]×100%} or 50% of Effective amount (ED50 (median effective dose); an amount of test material that is required to suppress 50% of pain behaviors) of Test material. The ED50 (median effective dose) was determined by calculating the suppression ratio of pain response in at least three doses of test materials and subjecting to the linear regression.
row,Compound,inhibition in vivo at 10 mg/kg
1,"NC(=O)OC(CCN1CCN(c2ccc3c(c2)OCCO3)CC1)c1ccccc1 (stereo not shown) [Example 11, Carbamic acid 3-[4-(2,3-dihydro-benzo[1,4]dioxin-6-yl)-piperazin-1-yl]-1-phenyl-propyl ester]",48%
2,"NC(=O)OC(CCN1CCN(c2ccc(OC(F)(F)F)cc2)CC1)c1ccccc1 (stereo not shown) [Example 12, Carbamic acid 1-phenyl-3-[4-(4-trifluoromethoxy-phenyl)-piperazin-1-yl]-propyl ester]",18%
3,"Cc1ccc(N2CCN(CCC(OC(N)=O)c3ccccc3)CC2)c(C)c1 (stereo not shown) [Example 13, Carbamic acid 3-[4-(2,4-dimethyl-phenyl)-piperazin-1-yl]-1-phenyl-propyl ester]",34%
4,"COc1ccc(N2CCN(CCC(OC(N)=O)c3ccccc3)CC2)c(OC)c1 (stereo not shown) [Example 17, Carbamic acid 3-[4-(2,4-dimethoxy-phenyl)-piperazin-1-yl]-1-phenyl-propyl ester]",19%
5,"NC(=O)OC(CCN1CCN(c2ccc(Cl)c(C(F)(F)F)c2)CC1)c1ccccc1 (stereo not shown) [Example 18, Carbamic acid 3-[4-(4-chloro-3-trifluoromethyl-phenyl)-piperazin-1-yl]-1-phenyl-propyl ester]",52%
6,"Cc1cccc(C)c1N1CCN(CCC(OC(N)=O)c2ccccc2)CC1 (stereo not shown) [Example 19, Carbamic acid 3-[4-(2,6-dimethyl-phenyl)-piperazin-1-yl]-1-phenyl-propyl ester]",48%
7,"NC(=O)OC(CCN1CCN(c2ccccc2O)CC1)c1ccccc1 (stereo not shown) [Example 23, Carbamic acid 3-[4-(2-hydroxy-phenyl)-piperazin-1-yl]-1-phenyl-propyl ester]",37%
8,"Cc1ccc(N2CCN(CCC(OC(N)=O)c3ccccc3)CC2)cc1C (stereo not shown) [Example 29, Carbamic acid 3-[4-(3,4-dimethyl-phenyl)-piperazin-1-yl]-1-phenyl-propyl ester]",99%
9,"NC(=O)OC(CCN1CCN(c2ccc3c(c2)OCO3)CC1)c1ccccc1 (stereo not shown) [Example 30, Carbamic acid 3-(4-benzo[1,3]dioxol-5-yl-piperazin-1-yl)-1-phenyl-propyl ester]",93%
10,"NC(=O)OC(CCN1CCN(c2ccc(Cl)c(Cl)c2)CC1)c1ccccc1 (stereo not shown) [Example 31, Carbamic acid 3-[4-(3,4-dichloro-phenyl)-piperazin-1-yl]-1-phenyl-propyl ester]",85%
11,"COc1ccc(Cl)cc1N1CCN(CCC(OC(N)=O)c2ccccc2)CC1 (stereo not shown) [Example 32, Carbamic acid 3-[4-(5-chloro-2-methoxy-phenyl)-piperazin-1-yl]-1-phenyl-propyl ester]",23%
12,"COc1cc(OC)cc(N2CCN(CCC(OC(N)=O)c3ccccc3)CC2)c1 (stereo not shown) [Example 33, Carbamic acid 3-[4-(3,5-dimethoxy-phenyl)-piperazin-1-yl]-1-phenyl-propyl ester]",13%
13,"NC(=O)OC(CCN1CCN(c2ncccn2)CC1)c1ccccc1 (stereo not shown) [Example 34, Carbamic acid 1-phenyl-3-(4-pyrimidin-2-yl-piperazin-1-yl)-propyl ester]",21%
14,"NC(=O)OC(CCN1CCN(c2ccc(C(F)(F)F)cc2[N+](=O)[O-])CC1)c1ccccc1 (stereo not shown) [Example 35, Carbamic acid 3-[4-(2-nitro-4-trifluoromethyl-phenyl)-piperazin-1-yl]-1-phenyl-propyl ester]",50%

# Same assay, conditions: Mus musculus; ip; unit not given (method doses in mg/kg); read-out: AA Writhing: ED50
row,Compound,ED50
1,"Cc1cccc(N2CCN(CCC(OC(N)=O)c3ccccc3)CC2)c1 (stereo not shown) [Example 24, Carbamic acid 1-phenyl-3-(4-m-tolylpiperazin-1-yl)-propyl ester]",0.81 mg/kg
2,"NC(=O)OC(CCN1CCN(c2ccc(C(F)(F)F)cc2)CC1)c1ccccc1 (stereo not shown) [Example 40, Carbamic acid 1-phenyl-3-[4-(4-trifluoromethyl-phenyl)-piperazin-1-yl]-propyl ester]",1.64 mg/kg
